Assay results as given in US9670261B2 (Sanofi, priority 2012, dated 2017).
In brackets after ≈: the same amount, converted by molar mass. *1 amine or outer side, *2 acyl side, *3 side chain or, on linkers, in order; H or OH if unused. Where a SMILES comes first, the peptide text is derived from it. Side-chain parts run from the residue outwards. [ ]: non-standard residue; d: D form. The star is where a group is joined. γGlu = O=C(O)[C@H](CCC(=O)[*:2])N[*:1]; Palmitoyl = CCCCCCCCCCCCCCCC(=O)*; Aib = CC(C)(N)C(=O)O

Experiments:
[1] = Pharmacokinetic testing in mice, s.c.; conditions: mouse, plasma, sc, 1 mg/kg
Experimental: Mice were dosed 1 mg/kg subcutaneously (s.c.). The mice were sacrified and blood samples were collected after 0.25, 0.5, 1, 2, 4, 8, 16 and 24 hours post application. Plasma samples were analyzed after protein precipitation via liquid chromatography mass spectrometry (LC/MS). PK parameters and half-life were calculated using WinonLin Version 5.2.1 (non-compartment model).

[2] = system: female leptin-receptor deficient diabetic db/db mice; test: Blood glucose and HbA1c in leptin-receptor deficient diabetic db/db mice (method 3); type: in vivo; conditions: single 100 μg/kg s.c., fed db/db mice
From the text: Female BKS.Cg-m+/+Leprdb/J (db/db) and BKS.Cg-m+/+Leprdb/+(lean control) mice were obtained from Charles River Laboratories, Germany, at an age of 9-10 weeks. The animals were housed in groups in a specific pathogen-free barrier facility on a 12-h light/dark cycle with free access to water and rodent-standard chow. After 1 week of acclimatization, blood samples were drawn from the tail without anaesthesia and blood glucose (method: d-glucose hexokinase, hemolysate, AU640 Beckman Coulter) and HbA1c level (method: hemolysate, Cobas6000 c501, Roche Diagnostics, Germany) were determined. […] The volume of administration was 5 mL/kg. The animals had access to water and chow during the experiment, food consumption was determined at all time points of blood sampling. […] Blood sampling was performed by tail incision without anaesthesia. […] At the end of the study, blood samples (tail, no anaesthesia) were analyzed for glucose and HbA1c. […] Statistical analyses were performed with Everstat 6.0 by repeated measures two-way ANOVA and Dunnett's post-hoc analyses. Differences versus vehicle-treated db/db control mice were considered statistically significant at the p<0.05 level. […] At predefined time points, more blood samples were taken to measure blood glucose and generate the blood glucose profile over 24 h. […] Blood glucose and HbA1c were determined before start of treatment and at the end of the study after 4 weeks of treatment. […] Before treatment started, no significant differences in blood glucose levels could be detected between db/db groups, only the lean control animals had significant lower glucose levels. During the 4 weeks of treatment, glucose levels increased in the vehicle-treated db/db control group, indicating a worsening of the diabetic situation.

human GIP receptor = molecular target: T1, human GIP receptor (Homo sapiens, UniProt P48546); test: cAMP response (HTRF) of HEK-293 cells stably expressing human GIP receptor; type: cell-based; conditions: Table 7; cAMP formation; read-out: EC50 hGIP R
T1 construct: expressed in transfected cells
T1 sequence (P48546 22-466): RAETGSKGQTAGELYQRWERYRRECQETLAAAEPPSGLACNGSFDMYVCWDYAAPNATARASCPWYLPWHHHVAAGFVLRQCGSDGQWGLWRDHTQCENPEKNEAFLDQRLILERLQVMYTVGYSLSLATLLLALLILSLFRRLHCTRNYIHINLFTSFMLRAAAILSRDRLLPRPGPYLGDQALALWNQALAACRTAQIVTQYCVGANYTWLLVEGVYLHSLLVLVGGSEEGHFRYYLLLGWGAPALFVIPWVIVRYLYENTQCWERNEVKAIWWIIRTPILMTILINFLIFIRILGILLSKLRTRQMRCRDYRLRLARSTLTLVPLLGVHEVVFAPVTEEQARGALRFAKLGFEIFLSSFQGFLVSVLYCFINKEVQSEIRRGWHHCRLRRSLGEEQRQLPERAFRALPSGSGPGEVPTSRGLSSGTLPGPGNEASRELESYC
Experimental: (§1) cAMP content of cells was determined using a kit from Cisbio Corp. (cat. no. 62AM4PEC) based on HTRF (Homogenous Time Resolved Fluorescence). For preparation, cells were split into T175 culture flasks and grown overnight to near confluency in medium (DMEM/10% FBS). Medium was then removed and cells washed with PBS lacking calcium and magnesium, followed by proteinase treatment with accutase (Sigma-Aldrich cat. no. A6964). Detached cells were washed and resuspended in assay buffer (1×HBSS; 20 mM HEPES, 0.1% BSA, 2 mM IBMX) and cellular density determined. They were then diluted to 400000 cells/ml and 25 μl-aliquots dispensed into the wells of 96-well plates. For measurement, 25 μl of test compound in assay buffer was added to the wells, followed by incubation for 30 minutes at room temperature.

human GLP-1 receptor = molecular target: T2, human GLP-1 receptor (Homo sapiens, UniProt P43220); test: cAMP response (HTRF) of HEK-293 cells stably expressing human GLP-1 receptor; type: cell-based; conditions: Table 7; cAMP formation; read-out: EC50 hGLP-1 R
T2 construct: expressed in transfected cells
T2 sequence (P43220 24-463): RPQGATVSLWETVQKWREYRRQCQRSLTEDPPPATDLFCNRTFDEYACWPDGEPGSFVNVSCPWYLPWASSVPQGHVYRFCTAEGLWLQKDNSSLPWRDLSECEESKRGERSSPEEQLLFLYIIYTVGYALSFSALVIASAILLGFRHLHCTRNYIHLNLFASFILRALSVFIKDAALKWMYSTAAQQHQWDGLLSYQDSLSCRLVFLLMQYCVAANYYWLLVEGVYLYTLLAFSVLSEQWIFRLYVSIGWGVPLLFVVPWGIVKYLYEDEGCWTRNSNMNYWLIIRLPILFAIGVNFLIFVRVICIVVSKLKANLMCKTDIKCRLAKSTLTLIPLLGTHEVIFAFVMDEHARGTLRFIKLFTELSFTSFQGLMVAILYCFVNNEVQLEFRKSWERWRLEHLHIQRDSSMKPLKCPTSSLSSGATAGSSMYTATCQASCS
Experimental: as §1

[3] = Chemical stability in solution, 7 days at 25° C. (% remaining peptide); conditions: % remaining peptide after 7 days at 25° C.
Experimental: After that time course, the sample was centrifuged for 20 min at 4000 rpm and the supernatant was analysed with HPLC-UV. For determination of the amount of the remaining peptide, the peak areas of the target compound at t0 and t7 were compared, resulting in “% remaining peptide”, following the equation % remaining peptide=[(peak area peptide t7)×100]/peak area peptide t0.
The chemical stability is expressed as “% remaining peptide”.

[4] = Solubility testing in buffer (HPLC-UV); conditions: buffer

Row | SMILES | Cmax [1] [ng/mL] | half-life [1] [h] | blood glucose compared to db/db control mice, 24 h profile [2] | EC50 (human GIP receptor) [pM] | EC50 (human GLP-1 receptor) [pM] | Stability (pH 4.5) ([3]; pH 4.5) [%] | Stability (pH 7.4) ([3]; pH 7.4) [%] | solubility at 2 h ([4]; pH 4.5) [µg/mL] | solubility at 2 h ([4]; pH 7.4) [µg/mL]
1 | CCCCCCCCCCCCCCCC(=O)N[C@@H](CCC(=O)NCCCC[C@H](NC(=O)[C@H](CCC(N)=O)NC(=O)[C@@H](NC(=O)[C@H](CO)NC(=O)[C@H](CC(C)C)NC(=O)[C@H](CC(=O)O)NC(=O)[C@H](CO)NC(=O)[C@@H](NC(=O)[C@H](Cc1ccccc1)NC(=O)[C@@H](NC(=O)CNC(=O)[C@H](CCC(=O)O)NC(=O)C(C)(C)NC(=O)[C@@H](N)Cc1ccc(O)cc1)[C@@H](C)O)[C@@H](C)O)[C@@H](C)CC)C(=O)N[C@@H](CCC(=O)O)C(=O)N[C@@H](CO)C(=O)N[C@@H](CCCNC(=N)N)C(=O)N[C@@H](C)C(=O)N[C@@H](C)C(=O)N[C@@H](CCC(N)=O)C(=O)N[C@@H](CC(=O)O)C(=O)N[C@@H](Cc1ccccc1)C(=O)N[C@H](C(=O)N[C@@H](CCC(=O)O)C(=O)N[C@@H](Cc1c[nH]c2ccccc12)C(=O)N[C@@H](CC(C)C)C(=O)N[C@@H](CCCCN)C(=O)N[C@@H](C)C(=O)NCC(=O)NCC(=O)N1CCC[C@H]1C(=O)N[C@@H](CO)C(=O)N[C@@H](CO)C(=O)NCC(=O)N[C@@H](C)C(=O)N1CCC[C@H]1C(=O)N1CCC[C@H]1C(=O)N1CCC[C@H]1C(=O)N[C@@H](CO)C(N)=O)[C@@H](C)CC)C(=O)O [SEQ ID NO: 10, Y-Aib-E-G-T-F-T-S-D-L-S-I-Q-K(γE-x53)-ESRAAQDFIEWLKAGGPSSGAPPPS-NH2] (H-Y[Aib]EGTFTSDLSIQK([γGlu-Palmitoyl])ESRAAQDFIEWLKAGGPSSGAPPPS-NH2) | 5820 | 2.7 | significant decrease in blood glucose | – | – | – | – | – | –
2 | CCCCCCCCCCCCCCCC(=O)N[C@@H](CCC(=O)NCCCC[C@H](NC(=O)[C@H](CCC(N)=O)NC(=O)[C@@H](NC(=O)[C@H](CO)NC(=O)[C@H](CC(C)C)NC(=O)[C@H](CC(=O)O)NC(=O)[C@H](CO)NC(=O)[C@@H](NC(=O)[C@H](Cc1ccccc1)NC(=O)[C@@H](NC(=O)CNC(=O)[C@H](CCC(=O)O)NC(=O)C(C)(C)NC(=O)[C@@H](N)Cc1ccc(O)cc1)[C@@H](C)O)[C@@H](C)O)[C@@H](C)CC)C(=O)N[C@@H](CCC(=O)O)C(=O)N[C@@H](CCCCN)C(=O)N[C@@H](CCCNC(=N)N)C(=O)N[C@@H](C)C(=O)N[C@@H](C)C(=O)NC(C)(C)C(=O)N[C@@H](CC(=O)O)C(=O)N[C@@H](Cc1ccccc1)C(=O)N[C@H](C(=O)N[C@@H](CCC(=O)O)C(=O)N[C@@H](Cc1c[nH]c2ccccc12)C(=O)N[C@@H](CC(C)C)C(=O)N[C@@H](CCCCN)C(=O)N[C@@H](CC(N)=O)C(=O)N[C@H](C(=O)NCC(=O)N1CCC[C@H]1C(=O)N[C@@H](CO)C(=O)N[C@@H](CO)C(=O)NCC(=O)N[C@@H](C)C(=O)N1CCC[C@H]1C(=O)N1CCC[C@H]1C(=O)N1CCC[C@H]1C(=O)N[C@@H](CO)C(N)=O)[C@@H](C)O)[C@@H](C)CC)C(=O)O [SEQ ID NO: 27, Y-Aib-E-G-T-F-T-S-D-L-S-I-Q-K(γE-x53)-E-K-R-A-A-Aib-D-F-I-E-W-L-K-N-T-G-P-S-S-G-A-P-P-P-S-NH2] (H-Y[Aib]EGTFTSDLSIQK([γGlu-Palmitoyl])EKRAA[Aib]DFIEWLKNTGPSSGAPPPS-NH2) | – | – | – | 6.7 | 4 | – | – | – | –
3 | CCCCCCCCCCCCCCCC(=O)N[C@@H](CCC(=O)NCCCC[C@H](NC(=O)[C@H](CCC(N)=O)NC(=O)[C@@H](NC(=O)[C@H](CO)NC(=O)[C@H](CC(C)C)NC(=O)[C@H](CC(=O)O)NC(=O)[C@H](CO)NC(=O)[C@@H](NC(=O)[C@H](Cc1ccccc1)NC(=O)[C@@H](NC(=O)CNC(=O)[C@H](CCC(N)=O)NC(=O)C(C)(C)NC(=O)[C@@H](N)Cc1ccc(O)cc1)[C@@H](C)O)[C@@H](C)O)[C@@H](C)CC)C(=O)N[C@@H](CCC(=O)O)C(=O)N[C@@H](CCCCN)C(=O)N[C@@H](CCCNC(=N)N)C(=O)N[C@@H](C)C(=O)N[C@@H](C)C(=O)NC(C)(C)C(=O)N[C@@H](CCC(=O)O)C(=O)N[C@@H](Cc1ccccc1)C(=O)N[C@H](C(=O)N[C@@H](CCC(=O)O)C(=O)N[C@@H](Cc1c[nH]c2ccccc12)C(=O)N[C@@H](CC(C)C)C(=O)N[C@@H](CCCCN)C(=O)N[C@@H](CC(N)=O)C(=O)N[C@H](C(=O)NCC(=O)N1CCC[C@H]1C(=O)N[C@@H](CO)C(=O)N[C@@H](CO)C(=O)NCC(=O)N[C@@H](C)C(=O)N1CCC[C@H]1C(=O)N1CCC[C@H]1C(=O)N1CCC[C@H]1C(=O)N[C@@H](CO)C(N)=O)[C@@H](C)O)[C@@H](C)CC)C(=O)O [SEQ ID NO: 8, Y-Aib-Q-G-T-F-T-S-D-L-S-I-Q-K(γE-x53)-E-K-R-A-A-Aib-E-F-I-E-W-L-K-N-T-G-P-S-S-G-A-P-P-P-S-NH2] (H-Y[Aib]QGTFTSDLSIQK([γGlu-Palmitoyl])EKRAA[Aib]EFIEWLKNTGPSSGAPPPS-NH2) | 3740 | 3.4 | – | – | 5.3 | 98.0 | 98.0 | > 1000 | 972 (≈ 212 µM)
4 | CCCCCCCCCCCCCCCC(=O)N[C@@H](CCC(=O)NCCCC[C@H](NC(=O)[C@H](CCC(N)=O)NC(=O)[C@@H](NC(=O)[C@H](CO)NC(=O)[C@H](CC(C)C)NC(=O)[C@H](CC(=O)O)NC(=O)[C@H](CO)NC(=O)[C@@H](NC(=O)[C@H](Cc1ccccc1)NC(=O)[C@@H](NC(=O)CNC(=O)[C@H](CCC(=O)O)NC(=O)C(C)(C)NC(=O)[C@@H](N)Cc1ccc(O)cc1)[C@@H](C)O)[C@@H](C)O)[C@@H](C)CC)C(=O)N[C@@H](CCC(=O)O)C(=O)N[C@@H](CCCCN)C(=O)N[C@@H](CCCNC(=N)N)C(=O)N[C@@H](C)C(=O)N[C@@H](C)C(=O)NC(C)(C)C(=O)N[C@@H](CCC(=O)O)C(=O)N[C@@H](Cc1ccccc1)C(=O)N[C@H](C(=O)N[C@@H](CCC(=O)O)C(=O)N[C@@H](Cc1c[nH]c2ccccc12)C(=O)N[C@@H](CC(C)C)C(=O)N[C@@H](CCCCN)C(=O)N[C@@H](C)C(=O)NCC(=O)NCC(=O)N1CCC[C@H]1C(=O)N[C@@H](CO)C(=O)N[C@@H](CO)C(=O)NCC(=O)N[C@@H](C)C(=O)N1CCC[C@H]1C(=O)N1CCC[C@H]1C(=O)N1CCC[C@H]1C(=O)N[C@@H](CO)C(N)=O)[C@@H](C)CC)C(=O)O [SEQ ID NO: 36, Y-Aib-E-G-T-F-T-S-D-L-S-I-Q-K(γE-x53)-E-K-R-A-A-Aib-E-F-I-E-W-L-K-A-G-G-P-S-S-G-A-P-P-P-S-NH2] (H-Y[Aib]EGTFTSDLSIQK([γGlu-Palmitoyl])EKRAA[Aib]EFIEWLKAGGPSSGAPPPS-NH2) | – | – | – | 6.4 | – | – | – | – | –
